Data from patent publication US8735414B2 (priority 2009, dated 2014).

How the values were obtained:
[1] = test system: bicistronic HCV replicon (replicon RNA, GenBank Accession No. AJ242654); assay: HCV Replicon Assay; assay type: cell-based; conditions: Hepatitis C virus, 72 h, read-out: Replicon IC50

With `C[C@H](NS(=O)(=O)c1cnc(-c2c(C#N)c3ccc(F)cc3n2C2CCCCC2)nc1)C(F)(F)F` [compound 411, 2-(3-cyano-1-cyclohexyl-6-fluoro-1H-indol-2-yl)-N-[(2S)-1,1,1-trifluoropropan-2-yl]pyrimidine-5-sulfonamide] the IC50 [1] was 0.5 to 2 µM and the melting point was 224 to 226 °C.
With `CCCn1c(-c2ccc(S(=O)(=O)NC(CF)CF)cn2)c(C#N)c2ccc(OC(F)F)cc21` [compound 45, 6-[3-cyano-6-(difluoromethoxy)-1-propyl-1H-indol-2-yl]-N-(1,3-difluoropropan-2-yl)pyridine-3-sulfonamide] the IC50 [1] was less than 0.5 µM and the melting point was 156 to 158 °C.
In the case of `CNC(=O)c1c(-c2ncc(S(=O)(=O)NC(C)(C)C)cn2)n(C2CCC2)c2cc(C)c(F)cc12` [compound 802, 2-[5-(tert-butylsulfamoyl)pyrimidin-2-yl]-1-cyclobutyl-5-fluoro-N,6-dimethyl-1H-indole-3-carboxamide], the IC50 [1] is reported as less than 0.5 µM and the melting point is reported as 211 to 213 °C.
With `CC(C)NS(=O)(=O)c1cnc(-c2c(C#N)c3cc(Cl)ccc3n2C2CCC2)nc1` [compound 114, 2-(5-chloro-3-cyano-1-cyclobutyl-1H-indol-2-yl)-N-(propan-2-yl)pyrimidine-5-sulfonamide] the IC50 [1] was less than 0.5 µM and the melting point was > 198 °C (dec.).
Work on `C[C@H](NS(=O)(=O)c1ccc(-c2c(C#N)c3ccc(CF)cc3n2C2CCC2)nc1)C(F)(F)F` [compound 362, 6-[3-cyano-1-cyclobutyl-6-(fluoromethyl)-1H-indol-2-yl]-N-[(2S)-1,1,1-trifluoropropan-2-yl]pyridine-3-sulfonamide] yielded an IC50 [1] of less than 0.5 µM and a melting point of 205 to 209 °C.
With `CCc1cc2c(cc1F)c(C#N)c(-c1ccc(S(=O)(=O)N[C@@H](C)C(F)(F)F)cn1)n2-c1cc(Cl)ccn1` [compound 993, 6-[1-(4-chloropyridin-2-yl)-3-cyano-6-ethyl-5-fluoro-1H-indol-2-yl]-N-[(2S)-1,1,1-trifluoropropan-2-yl]pyridine-3-sulfonamide] the IC50 [1] was less than 0.5 µM and the melting point was 185 to 190 °C.
For `N#Cc1c(-c2ccc(S(=O)(=O)NC(CF)CF)cn2)n(C2CCC2)c2ccc(OC(F)(F)F)cc12` [compound 25, 6-[3-cyano-1-cyclobutyl-5-(trifluoromethoxy)-1H-indol-2-yl]-N-(1,3-difluoropropan-2-yl)pyridine-3-sulfonamide], the IC50 [1] was 0.5 to 2 µM and the melting point was 179 to 182 °C.
`C[C@H](NS(=O)(=O)c1ccc(-c2c(C#N)c3cc(F)c(OC(F)F)cc3n2-c2ccccn2)nc1)C(F)(F)F` [compound 657, 6-[3-cyano-6-(difluoromethoxy)-5-fluoro-1-(pyridine-2-yl)-1H-indol-2-yl]-N-[(2S)-1,1,1-trifluoropropan-2-yl]pyridine-3-sulfonamide] gave an IC50 [1] of less than 0.5 µM and a melting point of 161 to 163 °C.
For `C[C@H](NS(=O)(=O)c1ccc(-c2c(C#N)c3cc(F)c(Br)cc3n2-c2ncccn2)nc1)C(F)(F)F` [compound 895, 6-[6-bromo-3-cyano-5-fluoro-1-(pyrimidin-2-yl)-1H-indol-2-yl]-N-[(2S)-1,1,1-trifluoropropan-2-yl]pyridine-3-sulfonamide], the IC50 [1] was less than 0.5 µM and the melting point was 224 to 226 °C.
In the case of `Cc1cc2c(cc1F)c(C#N)c(-c1ncc(S(=O)(=O)NC(CF)CF)cn1)n2C1CCC1` [compound 146, 2-(3-cyano-1-cyclobutyl-5-fluoro-6-methyl-1H-indol-2-yl)-N-(1,3-difluoropropan-2-yl)pyrimidine-5-sulfonamide], the IC50 [1] is reported as less than 0.5 µM and the melting point is reported as 243 to 249 °C.
`Cc1ccc2c(c1)c(C#N)c(-c1ncc(S(=O)(=O)NC(C)C)cn1)n2C1CCCC1` [compound 159, 2-(3-cyano-1-cyclopentyl-5-methyl-1H-indol-2-yl)-N-(propan-2-yl)pyrimidine-5-sulfonamide] showed an IC50 [1] of less than 0.5 µM and a melting point of 193 to 198 °C.
With `Cc1cc2c(cc1F)cc(-c1ccc(S(=O)(=O)N[C@@H](C)C(F)(F)F)cn1)n2-c1ccnc(F)c1` [compound 944, 6-[5-fluoro-1-(2-fluoropyridin-4-yl)-6-methyl-1H-indol-2-yl]-N-[(2S)-1,1,1-trifluoropropan-2-yl]pyridine-3-sulfonamide] the IC50 [1] was 0.5 to 2 µM and the melting point was 176 to 180 °C.
In the case of `Cc1ccc2c(c1)c(C#N)c(-c1ccc(S(=O)(=O)N[C@@H](C)C(F)(F)F)cn1)n2-c1ncc(F)cn1` [compound 948, 6-[3-cyano-1-(5-fluoropyrimidin-2-yl)-5-methyl-1H-indol-2-yl]-N-[(2S)-1,1,1-trifluoropropan-2-yl]pyridine-3-sulfonamide], the IC50 [1] is reported as less than 0.5 µM and the melting point is reported as 202 to 207 °C.
In the case of `Cc1cc2c(cc1F)c(C#N)c(-c1ccc(S(=O)(=O)N[C@@H](C)C(F)(F)F)cn1)n2-c1cccc(Cl)n1` [compound 962, 6-[1-(6-chloropyridin-2-yl)-3-cyano-5-fluoro-6-methyl-1H-indol-2-yl]-N-[(2S)-1,1,1-trifluoropropan-2-yl]pyridine-3-sulfonamide], the IC50 [1] is reported as less than 0.5 µM and the melting point is reported as 253 to 257 °C.
In the case of `Cc1c(F)cc2c(c1F)c(C#N)c(-c1ccc(S(=O)(=O)N[C@@H](C)C(F)(F)F)cn1)n2C1CCC1` [compound 555, 6-(3-cyano-1-cyclobutyl-4,6-difluoro-5-methyl-1H-indol-2-yl)-N-[(2S)-1,1,1-trifluoropropan-2-yl]pyridine-3-sulfonamide], the IC50 [1] is reported as less than 0.5 µM and the melting point is reported as 181 to 186 °C.
`CCc1cc2c(cc1F)c(C(N)=O)c(-c1ccc(S(=O)(=O)NC3(C(F)(F)F)CC3)cn1)n2C1CCCC1` [compound 872, 1-cyclopentyl-6-ethyl-5-fluoro-2-(5-{[1-(trifluoromethyl)cyclopropyl]sulfamoyl}pyridin-2-yl)-1H-indole-3-carboxamide] showed an IC50 [1] of less than 0.5 µM and a melting point of 196 to 197 °C.
In the case of `CCc1cc2c(cc1F)c(C#N)c(-c1ccc(S(=O)(=O)N[C@@H](C)C(F)(F)F)cn1)n2-c1ccncn1` [compound 964, 6-[3-cyano-6-ethyl-5-fluoro-1-(pyrimidin-4-yl)-1H-indol-2-yl]-N-[(2S)-1,1,1-trifluoropropan-2-yl]pyridine-3-sulfonamide], the IC50 [1] is reported as less than 0.5 µM and the melting point is reported as 202 to 206 °C.
`CC(C)(NS(=O)(=O)c1ccc(-c2c(C(N)=O)c3cc(F)c(C4CC4)cc3n2C2CCCC2)nc1)C(F)(F)F` [compound 850, 1-cyclopentyl-6-cyclopropyl-5-fluoro-2-{5-[(1,1,1-trifluoro-2-methylpropan-2-yl)sulfamoyl]pyridin-2-yl}-1H-indole-3-carboxamide] showed an IC50 [1] of less than 0.5 µM and a melting point of 236 to 237 °C.
Work on `Cc1cc2c(cc1F)c(C(N)=O)c(-c1ccc(S(=O)(=O)N[C@@H](C)C(F)(F)F)cn1)n2-c1cccnc1` [compound 913, 5-fluoro-6-methyl-1-(pyridin-3-yl)-2-(5-{[(2S)-1,1,1-trifluoropropan-2-yl]sulfamoyl}pyridin-2-yl)-1H-indole-3-carboxamide] yielded an IC50 [1] of less than 0.5 µM and a melting point of 223 to 227 °C.
With `COc1ccc(-n2c(-c3ncc(S(=O)(=O)NC(CF)CF)cn3)c(C#N)c3cc(F)ccc32)cc1` [compound 337, 2-[3-cyano-5-fluoro-1-(4-methoxyphenyl)-1H-indol-2-yl]-N-(1,3-difluoropropan-2-yl)pyrimidine-5-sulfonamide] the IC50 [1] was 0.5 to 2 µM and the melting point was 209 to 211 °C.
